From publication PMC6755814, “Crystal structure of the first eukaryotic bilin reductase GtPEBB reveals a flipped binding mode of dihydrobiliverdin” (The Journal of Biological Chemistry, 2019)

How the values were obtained:
mGtPEBB [1] = biological target: T1, mGtPEBB (Guillardia theta, UniProt L1IWQ9, R298M); test: UV/Vis spectral shift; anaerobic reductase assay with HPLC; format: biochemical; details: pH 7.5, ferredoxin from Synechococcus sp. PCC7002, NADPH regenerating system; product DHBV, low efficiency
T1 construct: gene GUITHDRAFT_96430; GST fusion in E. coli, cut by TEV protease, leaving N-terminal Gly-Gly; single-domain protein; codon-optimized gene

mGtPEBB [2] = biological target: T2, mGtPEBB (Guillardia theta, UniProt L1IWQ9); test: UV/Vis spectral shift; HPLC of products; format: binding; details: pH 7.5, 10 μM protein, 10 μM bilin; unnatural ligand, not reduced
T2 construct: gene GUITHDRAFT_96430; GST fusion in E. coli, cut by TEV protease, leaving N-terminal Gly-Gly; single-domain protein; codon-optimized gene
T2 sequence (L1IWQ9 84-356): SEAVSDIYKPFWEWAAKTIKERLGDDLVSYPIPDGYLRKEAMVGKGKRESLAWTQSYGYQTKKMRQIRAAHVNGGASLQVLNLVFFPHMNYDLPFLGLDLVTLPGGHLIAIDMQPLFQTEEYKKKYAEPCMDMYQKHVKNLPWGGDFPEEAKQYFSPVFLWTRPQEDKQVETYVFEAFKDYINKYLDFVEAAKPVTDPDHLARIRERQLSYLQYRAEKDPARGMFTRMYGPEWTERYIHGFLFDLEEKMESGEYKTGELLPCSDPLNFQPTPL

mGtPEBB [3] = biological target: T2, mGtPEBB; test: X-ray crystal structure of complex, […] Å; UV/Vis spectral shift; anaerobic reductase assay with HPLC; format: binding; details: co-crystal at pH 8.5; assay pH 7.5 with ferredoxin from Synechococcus sp. PCC7002, NADPH regenerating system; active site, flipped orientation
mGtPEBB [4] = biological target: T3, mGtPEBB (Guillardia theta, UniProt L1IWQ9, R298K); test: UV/Vis spectral shift; anaerobic reductase assay with HPLC; format: biochemical; details: pH 7.5, ferredoxin from Synechococcus sp. PCC7002, NADPH regenerating system
T3 construct: gene GUITHDRAFT_96430; GST fusion in E. coli, cut by TEV protease, leaving N-terminal Gly-Gly; single-domain protein; codon-optimized gene

mGtPEBB [5] = biological target: T4, mGtPEBB (Guillardia theta, UniProt L1IWQ9, D302N); test: as above; format: binding; details: pH 7.5, ferredoxin from Synechococcus sp. PCC7002, NADPH regenerating system
T4 construct: gene GUITHDRAFT_96430; GST fusion in E. coli, cut by TEV protease, leaving N-terminal Gly-Gly; single-domain protein; codon-optimized gene

mGtPEBB [6] = biological target: T5, mGtPEBB (Guillardia theta, UniProt L1IWQ9, R298S); test: as above; format: binding; details: pH 7.5, ferredoxin from Synechococcus sp. PCC7002, NADPH regenerating system
T5 construct: gene GUITHDRAFT_96430; GST fusion in E. coli, cut by TEV protease, leaving N-terminal Gly-Gly; single-domain protein; codon-optimized gene

mGtPEBB [7] = biological target: T6, mGtPEBB (Guillardia theta, UniProt L1IWQ9, D182N); test: as above; format: binding; details: pH 7.5, ferredoxin from Synechococcus sp. PCC7002, NADPH regenerating system
T6 construct: gene GUITHDRAFT_96430; GST fusion in E. coli, cut by TEV protease, leaving N-terminal Gly-Gly; single-domain protein; codon-optimized gene

mGtPEBB [8] = biological target: T7, mGtPEBB (Guillardia theta, UniProt L1IWQ9, R298A); test: as above; format: biochemical; details: pH 7.5, ferredoxin from Synechococcus sp. PCC7002, NADPH regenerating system; trace conversion only
T7 construct: gene GUITHDRAFT_96430; GST fusion in E. coli, cut by TEV protease, leaving N-terminal Gly-Gly; single-domain protein; codon-optimized gene

mGtPEBB [9] = biological target: T8, mGtPEBB (Guillardia theta, UniProt L1IWQ9, R298L); test: as above; format: binding; details: pH 7.5, ferredoxin from Synechococcus sp. PCC7002, NADPH regenerating system
T8 construct: gene GUITHDRAFT_96430; GST fusion in E. coli, cut by TEV protease, leaving N-terminal Gly-Gly; single-domain protein; codon-optimized gene

mGtPEBB [10] = biological target: T1, mGtPEBB; test: as above; format: binding; details: pH 7.5, ferredoxin from Synechococcus sp. PCC7002, NADPH regenerating system

T1 sequence (L1IWQ9 entry or part of it R298M): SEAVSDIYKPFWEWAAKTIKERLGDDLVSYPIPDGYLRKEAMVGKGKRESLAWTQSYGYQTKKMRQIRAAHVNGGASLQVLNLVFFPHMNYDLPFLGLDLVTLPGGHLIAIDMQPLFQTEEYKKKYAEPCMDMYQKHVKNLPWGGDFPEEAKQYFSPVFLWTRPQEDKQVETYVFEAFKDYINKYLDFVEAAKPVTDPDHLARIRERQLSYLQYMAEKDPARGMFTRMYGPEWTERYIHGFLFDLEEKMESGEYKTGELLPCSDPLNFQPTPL
T6 sequence (L1IWQ9 entry or part of it D182N): as the sequence (L1IWQ9 entry or part of it R298M) above, with D99N, M215R counted along it
T4 sequence (L1IWQ9 entry or part of it D302N): as the sequence (L1IWQ9 entry or part of it R298M) above, with M215R, D219N counted along it
T8 sequence (L1IWQ9 entry or part of it R298L): as the sequence (L1IWQ9 entry or part of it R298M) above, with M215L counted along it
T5 sequence (L1IWQ9 entry or part of it R298S): as the sequence (L1IWQ9 entry or part of it R298M) above, with M215S counted along it
T7 sequence (L1IWQ9 entry or part of it R298A): as the sequence (L1IWQ9 entry or part of it R298M) above, with M215A counted along it
T3 sequence (L1IWQ9 entry or part of it R298K): as the sequence (L1IWQ9 entry or part of it R298M) above, with M215K counted along it

Row | SMILES | UV/Vis spectral shift; anaerobic reductase assay with HPLC (mGtPEBB [1]) | UV/Vis spectral shift; HPLC of products (mGtPEBB [2]) | X-ray crystal structure of complex, 1.65 Å; UV/Vis spectral shift; anaerobic red (mGtPEBB [3]) | UV/Vis spectral shift; anaerobic reductase assay with HPLC (mGtPEBB [4]) | UV/Vis spectral shift; anaerobic reductase assay with HPLC (mGtPEBB [5]) | UV/Vis spectral shift; anaerobic reductase assay with HPLC (mGtPEBB [6]) | UV/Vis spectral shift; anaerobic reductase assay with HPLC (mGtPEBB [7]) | UV/Vis spectral shift; anaerobic reductase assay with HPLC (mGtPEBB [8]) | UV/Vis spectral shift; anaerobic reductase assay with HPLC (mGtPEBB [9]) | UV/Vis spectral shift; anaerobic reductase assay with HPLC (mGtPEBB [10])
1 | C=CC1=C(C)C(=Cc2[nH]c(C=C3N=C(C=C4NC(=O)C(C)=C4C=C)C(C)=C3CCC(=O)O)c(CCC(=O)O)c2C)NC1=O [BV] | R215M was able to convert BV to DHBV | indicated binding of this unnatural substrate | – | – | – | – | – | – | – | –
2 | C=CC1=C(C)C(=O)NC1=CC1=NC(=Cc2[nH]c(CC3NC(=O)C(C=C)=C3C)c(C)c2CCC(=O)O)C(CCC(=O)O)=C1C (stereo not shown) [DHBV] | – | – | Both chains showed clear density for DHBV already after molecular replacement | Replacing Arg-215 with lysine maintained side chain charge and size to some extent | caused a blue shift of the maximum of the DHBV-binding spectrum | both R215S and R215M showed binding spectra similar to WT | caused a blue shift of the maximum of the DHBV-binding spectrum | only trace amounts of PEB were detected for R215A | the binding spectrum of R215L was very similar to the WT spectrum | both R215S and R215M showed binding spectra similar to WT
